Experiments:
[1] = test system: HepG2 xenograft tumor masses; test: Histomorphometric and immunohistochemical analysis of tumor masses; assay type: in vivo, BALB/c nude mice; details: for Tumor cell volumes: H&E, six histological fields; for Immunolabeled cell percentages: CD31 (PECAM-1) / Immunolabeled cell percentages: Caspase-3 / Immunolabeled cell percentages: Ki-67 / Immunolabeled cell percentages: PARP: tumor mass; for Caspase-3-immunolabeled cells: tumor of treated mice
Experimental: Xenografted tumor masses were cut and fixed in 10% neutral buffered formalin, embedded in paraffin, serially sectioned (3–4 μm), and stained with H&E prior to histopathological examinations under a light microscope (Nikon, Tokyo, Japan). The tumor cell volumes and intact tumor cell-occupied regions (%/mm^2 of tumor mass) were calculated using a computer-based automated image analyzer (iSolution FL ver 9.1, IMT i-solution Inc., Quebec, Canada).
The apoptotic markers, caspase-3, PARP, CD31, and Ki67 were investigated immunohistochemically using purified primary antibodies and biotinylated secondary antibodies, with avidin-biotin-peroxidase complex (ABC) and a peroxidase substrate kit (Vector Labs, Burlingame, CA, USA). Briefly, endogenous peroxidase activity was blocked with methanol and 0.3% H2O2 for 30 min, and non-specific immunoglobulin binding was blocked with normal horse serum blocking solution in 10 mM citrate buffer (pH 6.0). Tissue sections were incubated with primary antisera overnight at 4°C in a humidity chamber, and then incubated with biotinylated universal secondary antibodies and ABC reagents for 1 h at room temperature. Finally, sections were reacted with the peroxidase substrate kit for 3 min at room temperature. Cells were counted as immunopositive if they had > 20% immunoreactivity to the apoptotic marker (caspase-3 or PARP). The percentage region occupied by caspase-3- and PARP-positive cells within the tumor mass (%/mm^2 of tumor mass) was measured by an automated image analyzer.

[2] = test system: HepG2 tumor-bearing xenograft mice; test: In vivo antitumor study; design: species or system BALB/c nude mice; details: 5 mg/kg i.v., days 1, 4, 7, 10
Experimental: HepG2 cell-bearing xenograft mice models were developed by subcutaneously injecting 1 × 10^7 cells/100 μl into the rear flanks of 5-week-old male BALB/c nude mice (Orient Ltd. Osan, South Korea). After two weeks of initial implantation, animals were randomly divided into six groups (n = 6 per group). Respective formulations were injected at a dose of 100 μg/100 μL in 750 μg carrier by tail vein four times every 3 days. Tumors were measured twice weekly using a digital caliper and the tumor volume (V) was calculated as, V = ((width)^2 x length)/2. The animals were sacrificed after four weeks of treatment and the primary tumor was excised, weighed, and subjected to further analysis.

red blood cells (RBC) = test: Hemolytic analysis; details: male, Sprague-Dawley, rat
Experimental: The experimental protocol was approved by
the Institutional Animal Ethical Committee, Yeungnam
Briefly, the rat femoral artery
was cannulated and whole blood samples were withdrawn.
centrifugation at 3500 rpm for 10 min. The degree of
Hemolytic analysis hemolysis was determined by measuring the absorbance
of the supernatant at 540 nm.
Hemolytic toxicity was determined in a male
Sprague-Dawley rat after treatment with different

**Q.** Which Tumor cell volumes [1] does the source give for O=C(CCCCCCC(=O)Nc1ccccc1)NO [VOR, Vorinostat] here?
**A.** 60.51 ± 10.92 %/mm2 of tumor mass

**Q.** And the “Immunolabeled cell percentages: CD31 (PECAM-1)” value [1]?
**A.** 29.70 ± 2.52 %/mm2 of tumor mass

**Q.** And the “Immunolabeled cell percentages: Caspase-3” value [1]?
**A.** 26.31 ± 7.48 %/mm2 of tumor mass

**Q.** And the “Immunolabeled cell percentages: Ki-67” value [1]?
**A.** 42.64 ± 4.65 %/mm2 of tumor mass

**Q.** And the “Immunolabeled cell percentages: PARP” value [1]?
**A.** 27.64 ± 3.22 %/mm2 of tumor mass

**Q.** And the “Caspase-3-immunolabeled cells” value [1]?
**A.** 26.31%

**Q.** And the “Tumor growth (in words)” value [2]?
**A.** slightly inhibited tumor growth

**Q.** And the hemolysis at 30 min, 100 µg/mL (red blood cells (RBC); isolated red blood cells (RBC) suspension)?
**A.** ~40%

**Q.** Which Tumor cell volumes [1] does the source give for CC(=O)O[C@H]1C(=O)[C@@]2(C)[C@H]([C@H](OC(=O)c3ccccc3)[C@]3(O)C[C@H](OC(=O)[C@H](O)[C@@H](NC(=O)c4ccccc4)c4ccccc4)C(C)=C1C3(C)C)[C@]1(OC(C)=O)CO[C@@H]1C[C@@H]2O [PTX, Paclitaxel] here?
**A.** 53.84 ± 3.18 %/mm2 of tumor mass

**Q.** What about the “Immunolabeled cell percentages: CD31 (PECAM-1)” value [1] of the same compound?
**A.** 30.54 ± 4.09 %/mm2 of tumor mass

**Q.** And the “Immunolabeled cell percentages: Caspase-3” value [1]?
**A.** 30.34 ± 5.00 %/mm2 of tumor mass

**Q.** What about the “Immunolabeled cell percentages: Ki-67” value [1] of the same compound?
**A.** 44.90 ± 5.31 %/mm2 of tumor mass

**Q.** And the “Immunolabeled cell percentages: PARP” value [1]?
**A.** 29.59 ± 3.04 %/mm2 of tumor mass

**Q.** And the “Caspase-3-immunolabeled cells” value [1]?
**A.** 30.34%

**Q.** And the “Tumor growth (in words)” value [2]?
**A.** slightly inhibited tumor growth

**Q.** And the hemolysis at 30 min, 100 µg/mL (red blood cells (RBC))?
**A.** ~25%
